Data taken from patent US12171744B2, “Pharmaceutical combinations for the treatment of cancer” (Presage Biosciences, Inc., priority 2016, dated 2024).
“Also recorded” adds a separate entry of the source.

Legend:
[1] = system: HCC1187 triple negative breast cancer cells; assay: Western blot of treated cells; format: cell-based
Method: Cell lines shown in Table 1, adherent or suspension, were treated in 6-well dishes or T10 flasks respectively, seeded at one million per ml density prior to treatment in total volumes of 3-10 ml. All agents used for in vitro cell treatments were formulated in water/DMSO to achieve required concentrations (as stated in respective figure labels/legends) with DMSO concentrations not exceeding 0.01%. Drug sources are indicated in table under ‘CIVO microinjection studies’. Cells were harvested at experimental time points: 2, 6, or 24 hours post treatment as indicated in respective figures, first by washing cells twice in ice-cold PBS in 15 ml falcon tubes, centrifugation at 1000 rpm for 5 mins followed by lysis of the respective cell pellets as described in section below. Note: Drug resistant NUDHL1 Dox 1000 nM and Toledo Dox 1000 nM cell lines were generated at Presage by culturing parental lines in media with stepwise increments in Doxorubicin concentration over several passages. These cells were used to generate xenografts when resistance to 1 uM Dox was achieved.
Protein lysates were prepared by adding ice-cold 1×RIPA Buffer (from 10×, Millipore) with 1×-3× Halt protease and phosphatase inhibitor cocktail (100×, Pierce) to cell pellets, followed by pulse sonication (˜3-5 secs) three times. Lysates were cleared by centrifugation at 14K rpm for 15-20 mins and the supernatant (lysate) was collected for further analysis. To prepare lysates from cryopreserved xenograft tumor tissue, tissue was first homogenized using a hand-held tissue homogenizer (Cole Palmer) in above lysis buffer followed by pulse sonication and centrifugation as described above. Above steps were carried out under ice cold conditions. […] 20-25 micrograms of protein from each sample were subject to SDS-PAGE using BOLT 4-12% Bis-Tris gels (Thermofisher) and transferred to either 0.45 or 0.2 micron pore size membranes (as applicable based on protein molecular size), and either nitrocellulose (NC) or pvdf (Thermofisher) using manufacturer's protocol, blocked for one hour in 5% milk at room temperature, probed with primary antibodies (Table 2) at 4 deg C. overnight and corresponding HRP-conjugated secondary antibodies (Jackson Immunoresearch, 1:10,000-1:20,000 dilutions) for 1 hour at room temperature. Three PBS/0.01% Tween-20 washes (5-10 mins each) were carried out after each antibody incubation. ECL chemiluminescent substrate (Pierce or GE) and autoradiographic film (Thermofisher) was used for detection of protein signals.
1 ug of mRNA from each condition was used to generate cDNA using the High Capacity cDNA Reverse Transcription Kit (Applied Biosystems) and manufacturer's protocol. 100 ng cDNA was used to conduct a PCR assay to amplify XBP1 u or splice forms (Thermofisher PCR Supermix)—94 deg C. for 2 mins, (94 deg C. for 15 secs, 55 deg C. for 30 secs, 72 deg C. for 1 min)×30 cycles, 72 deg C. for 7 mins, hold at 4 deg C.

38 different kinases = assay: Comparison of inhibition profiles on 38 different kinases; format: biochemical; details: compared with flavopiradol
[2] = Western blot, voruciclib and bortezomib in combination

Compound: CN1CC[C@@H](c2c(O)cc(O)c3c(=O)cc(-c4ccc(C(F)(F)F)cc4Cl)oc23)[C@@H]1CO (relative stereo) [voruciclib, (+)-trans-2-(2-Chloro-4-trifluoromethylphenyl)-5,7-dihydroxy-8-(2-hydroxymethyl-1-methylpyrrolidin-3-yl)-chromen-4-one]
- MCL-1 protein expression ([1]; Western blot, compared to untreated sample): reduced
- bortezomib-induced increase in MCL-1 expression [1, 2]: decreased; also recorded: diminishes
- bortezomib-induced upregulation of XIAP [1, 2]: diminishes
- XBP1 upregulation ([1]; voruciclib combined with either bortezomib or tunicamycin): diminished
- specificity for CDKs (38 different kinases): more specific for CDKs than flavopiradol
